Laboratory results taken from PubChem BioAssay (NCI).
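Exposure lasted 48 hours, with cells grown in 96-well plates and compounds tested at five concentrations. GI50: concentration for 50% inhibition of growth. At the TGI there is no net growth.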

Key:
Test in all cases: NCI anticancer screen, dose series, 48 h
HOP-62 NSCLC = tested on: HOP-62 NSCLC
IGROV1 ovarian = tested on: IGROV1 ovarian
HOP-92 NSCLC = tested on: HOP-92 NSCLC
U251 CNS = tested on: U251 CNS
SNB-75 CNS = tested on: SNB-75 CNS
SNB-78 CNS = tested on: SNB-78 CNS
HCC-2998 colon = tested on: HCC-2998 colon
SK-MEL-5 melanoma = tested on: SK-MEL-5 melanoma
RPMI-8226 leukemia = tested on: RPMI-8226 leukemia
KM20L2 colon = tested on: KM20L2 colon

## CO/C=C(\Br)c1ccc2c(c1)OCO2
HOP-62 NSCLC
  TGI: > 100 µM
IGROV1 ovarian
  TGI: > 100 µM
HOP-92 NSCLC
  TGI: > 100 µM
U251 CNS
  TGI: > 100 µM
SNB-75 CNS
  TGI: > 100 µM
SNB-78 CNS
  TGI: > 100 µM

## CCOC(=O)CNC(=O)OCc1ccccc1
HOP-62 NSCLC
  TGI: > 100 µM
IGROV1 ovarian
  TGI: > 100 µM
HCC-2998 colon
  TGI: > 100 µM
HOP-92 NSCLC
  TGI: > 100 µM
U251 CNS
  TGI: > 100 µM
SNB-75 CNS
  TGI: > 100 µM
SNB-78 CNS
  TGI: > 100 µM

## O=S1(=O)c2cc(S(=O)(=O)n3ccnc3)ccc2NC2=NCCCN21
HOP-62 NSCLC
  TGI: 63.6 µM
IGROV1 ovarian
  TGI: > 100 µM
SK-MEL-5 melanoma
  TGI: 49.6 µM
HCC-2998 colon
  TGI: 55.3 µM
HOP-92 NSCLC
  TGI: > 100 µM
RPMI-8226 leukemia
  TGI: > 100 µM
U251 CNS
  TGI: 41.5 µM
KM20L2 colon
  TGI: 41.7 µM
SNB-75 CNS
  TGI: 88.1 µM

## COc1ccc(CNCCCN2C(=O)c3ccc4c5c(ccc(c35)C2=O)C(=O)N(CCCNCc2ccc(OC)c(OC)c2OC)C4=O)c(OC)c1OC
HOP-62 NSCLC
  GI50: 0.171 µM
  TGI: 0.729 µM
IGROV1 ovarian
  GI50: 0.0795 µM
  TGI: 0.189 µM
SK-MEL-5 melanoma
  GI50: 0.0792 µM
  TGI: 0.147 µM
HCC-2998 colon
  GI50: 0.0957 µM
  TGI: 0.187 µM
HOP-92 NSCLC
  GI50: 0.108 µM
  TGI: 0.328 µM
RPMI-8226 leukemia
  GI50: 0.145 µM
  TGI: 0.56 µM
U251 CNS
  GI50: 0.0879 µM
  TGI: 0.174 µM
SNB-75 CNS
  GI50: 0.139 µM
  TGI: 0.442 µM

## Cc1ccc2[nH]c(C(=O)NN3C(=O)C(C)SC34CCC(C)CC4)c(-c3ccccc3)c2c1 (centres undefined)
HOP-62 NSCLC
  GI50: 18.1 µM
  TGI: 37.7 µM
IGROV1 ovarian
  GI50: 13.6 µM
  TGI: 36.4 µM
SK-MEL-5 melanoma
  GI50: 18.4 µM
  TGI: 36.3 µM
HCC-2998 colon
  GI50: 16.6 µM
  TGI: 31.7 µM
HOP-92 NSCLC
  GI50: 16.7 µM
  TGI: 36 µM
RPMI-8226 leukemia
  GI50: 11.5 µM
  TGI: 52.6 µM
U251 CNS
  GI50: 15.7 µM
  TGI: 34.1 µM
SNB-75 CNS
  GI50: 24.4 µM
  TGI: 51.4 µM

## CCN(CC)CCn1c(=O)c2cc(OC)c(OC)cc2c2ccc3cc4c(cc3c21)OCO4
HOP-62 NSCLC
  GI50: 0.246 µM
  TGI: 13.8 µM
IGROV1 ovarian
  GI50: 0.491 µM
  TGI: 21.4 µM
SK-MEL-5 melanoma
  GI50: 0.193 µM
  TGI: 0.457 µM
HCC-2998 colon
  GI50: 2.57 µM
  TGI: 25.7 µM
HOP-92 NSCLC
  GI50: 0.49 µM
  TGI: > 50 µM
RPMI-8226 leukemia
  GI50: 0.436 µM
  TGI: 4.56 µM
U251 CNS
  GI50: 0.201 µM
  TGI: 18.6 µM
SNB-75 CNS
  GI50: 0.305 µM
  TGI: 15.4 µM

## CC1(C)N=c2cc3c(cc2N1c1ccc(Cl)cc1)=Nc1ccccc1N3c1ccc(Cl)cc1
HOP-62 NSCLC
  GI50: > 100 µM
  TGI: > 100 µM
IGROV1 ovarian
  GI50: 13.4 µM
  TGI: > 100 µM
SK-MEL-5 melanoma
  GI50: 3.64 µM
  TGI: 20.3 µM
HCC-2998 colon
  GI50: 17.8 µM
  TGI: > 100 µM
HOP-92 NSCLC
  GI50: 1.57 µM
  TGI: 6.59 µM
RPMI-8226 leukemia
  GI50: 2.05 µM
  TGI: 11.8 µM
U251 CNS
  GI50: 8.03 µM
  TGI: > 100 µM
SNB-75 CNS
  GI50: 2.45 µM
  TGI: 71.6 µM

## CCOC(=O)Nc1ccc2c(c1)C(=O)N(CC)c1ccccc1O2
HOP-62 NSCLC
  GI50: 0.128 µM
  TGI: > 100 µM
IGROV1 ovarian
  GI50: 0.265 µM
  TGI: > 100 µM
SK-MEL-5 melanoma
  GI50: 0.106 µM
  TGI: 2.33 µM
HCC-2998 colon
  GI50: 0.309 µM
  TGI: > 100 µM
HOP-92 NSCLC
  GI50: 1.5 µM
  TGI: > 100 µM
RPMI-8226 leukemia
  GI50: 0.126 µM
  TGI: > 100 µM
U251 CNS
  GI50: 0.106 µM
  TGI: > 100 µM
SNB-75 CNS
  GI50: 0.188 µM
  TGI: > 100 µM

## O=c1cc(-c2ccccc2)oc2c1ccc1ccccc12
HOP-62 NSCLC
  GI50: 29.6 µM
  TGI: > 100 µM
IGROV1 ovarian
  GI50: 14.1 µM
  TGI: 55.8 µM
SK-MEL-5 melanoma
  GI50: 20.2 µM
  TGI: 65.3 µM
HCC-2998 colon
  GI50: 56.7 µM
  TGI: > 100 µM
HOP-92 NSCLC
  GI50: 9.25 µM
  TGI: 45.5 µM
RPMI-8226 leukemia
  GI50: 21.7 µM
  TGI: 70.2 µM
U251 CNS
  GI50: 17.1 µM
  TGI: > 100 µM
SNB-75 CNS
  GI50: 11.6 µM
  TGI: 45.9 µM

## FC(F)(F)c1cc(NC(=S)N2c3ccccc3-n3cccc3C2c2cccnc2)cc(C(F)(F)F)c1 (centres undefined)
HOP-62 NSCLC
  GI50: 7.23 µM
  TGI: 21.7 µM
IGROV1 ovarian
  GI50: 8.76 µM
  TGI: 22.9 µM
SK-MEL-5 melanoma
  GI50: 11.6 µM
  TGI: 23.9 µM
HCC-2998 colon
  GI50: 5.1 µM
  TGI: 19 µM
HOP-92 NSCLC
  GI50: 2.93 µM
  TGI: 7.87 µM
RPMI-8226 leukemia
  GI50: 3.84 µM
  TGI: 18.7 µM
U251 CNS
  GI50: 4.2 µM
  TGI: 14.8 µM
SNB-75 CNS
  GI50: 7.07 µM
  TGI: 22.7 µM

## CC(=O)Nc1ccc(OC(C)=O)cc1
HOP-62 NSCLC
  GI50: < 0.01 µM
  TGI: 14.7 µM
IGROV1 ovarian
  GI50: < 0.0122 µM
  TGI: > 48.5 µM
SK-MEL-5 melanoma
  GI50: < 0.01 µM
  TGI: < 0.01 µM
HCC-2998 colon
  GI50: < 0.0117 µM
  TGI: 0.327 µM
HOP-92 NSCLC
  GI50: < 0.0116 µM
  TGI: 1.81 µM
RPMI-8226 leukemia
  GI50: < 0.01 µM
  TGI: 9.64 µM
U251 CNS
  GI50: < 0.01 µM
  TGI: > 37.7 µM
SNB-75 CNS
  GI50: < 0.01 µM
  TGI: 28.6 µM

## CCn1c(SCC(=O)Nc2cc(C(F)(F)F)ccc2Cl)nc2ccccc2c1=O
HOP-62 NSCLC
  GI50: 14.6 µM
  TGI: 33.5 µM
IGROV1 ovarian
  GI50: 28.1 µM
  TGI: > 100 µM
SK-MEL-5 melanoma
  GI50: 25.1 µM
  TGI: > 100 µM
HCC-2998 colon
  GI50: > 100 µM
  TGI: > 100 µM
HOP-92 NSCLC
  GI50: 12.1 µM
  TGI: 41.4 µM
RPMI-8226 leukemia
  GI50: > 100 µM
  TGI: > 100 µM
U251 CNS
  GI50: 30.3 µM
  TGI: > 100 µM
SNB-75 CNS
  GI50: 17.1 µM
  TGI: 53.8 µM

## FC(F)(F)c1nc(SCc2ccc(Cl)cc2)n[nH]1
HOP-62 NSCLC
  TGI: > 100 µM
IGROV1 ovarian
  TGI: > 100 µM
SK-MEL-5 melanoma
  TGI: > 100 µM
HCC-2998 colon
  TGI: > 100 µM
HOP-92 NSCLC
  TGI: > 100 µM
RPMI-8226 leukemia
  TGI: > 100 µM
U251 CNS
  TGI: > 100 µM
SNB-75 CNS
  TGI: > 100 µM
